Results reported in patent US20230365493A1, “COMPOUNDS AND METHODS” (DEMAGTECH PTY LTD, priority 2020, published 2023).

What was measured:
Arabidopsis thaliana [1] = test: Small-scale drift (volatility) assay; set-up: species or system Arabidopsis thaliana Col-0; conditions: for drift burn (volatility), FIG. 6: 15 mM and 30 mM, same methodology; for drift behaviour, FIG. 27: 2.5 or 5 mM, images recorded at 17 days; for drift burn (volatility), FIG. 5: 5, 10 or 15 mM in lid in centre of pot, imaged after 2 weeks
Procedure: A small-scale drift assay was established. Pots (63×63×59 mm) were filled with Seedling Substrate Plus+ soil (Bord na Móna Horticulture Ltd, Newbridge, Ireland) consisting of Irish peat. Soil was pre-wet before sowing to saturation and a plastic lid from a 50 mL tube placed in the centre of each pot. Seeds of wild type Col-0 Arabidopsis thaliana were sown around each of the lids. Seeds were cold-treated for 3 days in the dark at 4° C. to synchronize germination and then grown in a chamber at 22° C., with 60% relative humidity and in a 16 h light/8 h dark photoperiod. […] After growth for 2 weeks plants were imaged. (In the case of FIG. 27, images were recorded at 17 days).
A second experiment was performed using the same methodology, but at higher concentrations (15 mM and 30 mM).

Arabidopsis thaliana [2] = test: Activity vs a panel of plants: Arabidopsis thaliana; format: in vivo; conditions: 31.25 μM to 4000 μM; imaged day 12
Description: (§1) Pots (63×63×59 mm) were filled with Seedling Substrate Plus+ soil (Bord na Móna Horticulture Ltd, Newbridge, Ireland) consisting of Irish peat. Soil was pre-wet to saturation before sowing seeds. Seeds of the following species were sown. • Arabidopsis thaliana • Cynodon dactylon (couch grass) • Eragrostis tef (tef) • Lolium rigidum (herbicide resistant ryegrass) • Ratibida columnifera (prairie coneflower) • Raphanus raphanistrum (wild radish) • Solanum lycopersicum (tomato) • Triticum aestivum (wheat)
(§2) The number of seeds depended on germination rate and plant size. Seeds were sown in pots (63×63×59 mm) of Seedling Substrate Plus+ soil (Bord na Móna Horticulture Ltd, Newbridge, Ireland) consisting of Irish peat. Soil was pre-wet before sowing to saturation and watered throughout the experiment to maintain adequate moisture. No fertilizer was added. Seeds were cold-treated 7 days in the dark at 4° C. to synchronize germination and grown in a chamber at 22° C., with 60% relative humidity and a 16 h light/8 h dark photoperiod. […]
(§3) Each compound was tested on seedlings by pipetting 600 μL of 0, 31.25, 62.5, 125, 250, 500, 1000, 2000 or 4000 μmol/L solutions directly onto the plants; these quantities and concentrations are equivalent to ˜10, 20, 40, 78, 156, 312, 625 and 1250 g/ha a.i. […]

[3] = test system: Lolium rigidum (herbicide resistant ryegrass); test: Activity vs a panel of plants: Lolium rigidum; format: in vivo; conditions: 31.25 μM to 4000 μM; imaged day 12
Description: as §1, §2, §3

[4] = test system: Cynodon dactylon (couch grass); test: Activity vs a panel of plants: Cynodon dactylon; format: in vivo; conditions: 31.25 μM to 4000 μM; imaged day 10
Description: as §1, §2, §3

[5] = test system: Solanum lycopersicum (tomato); test: Activity vs a panel of plants: Solanum lycopersicum; format: in vivo; conditions: 31.25 μM to 4000 μM; imaged day 10
Description: as §1, §2, §3

[6] = test system: Raphanus raphanistrum (wild radish); test: Activity vs a panel of plants: Raphanus raphanistrum; format: in vivo; conditions: 31.25 μM to 4000 μM; imaged day 10
Description: as §1, §2, §3

[7] = test system: A. thaliana wild type Col-0 or single-locus DMOc line; test: Compatibility with the DMOc dicamba tolerance trait; format: in vivo, Arabidopsis thaliana; conditions: wild type vs DMOc line; dicamba 7-125 μM, 1·HCl 31-500 μM; sprayed at 4 and 7 days; imaged Day 11
Description: To recreate dicamba tolerance by dicamba monooxygenase in A. thaliana similarly to that made by Behrens et al. (2007, Science 316: 1185-1188) a synthetic gene encoding the oxygenaseDIC from Stenotrophomonas maltophilia strain DI-6 (GenBank accession AY786443) was made to include a 58-residue chloroplast targeting leader used by Anderson and Smith (1986, Biochem. J. 240: 709-715) and incorporated a […] mutation said to provide useful changes in pH and temperature optima (See, for example, […] in International Patent Application WO2007146706A2). A BamHI site immediately preceding the sequence encoding the start Met and a SacI site immediately after the stop codon were used to subclone this synthetic DMOc gene into pMDC43 (Curtis and Grossniklaus 2003 Plant Physiol. 133: 462-469), from which the mGFP6 coding sequence and Gateway recombination cassette were removed by the same restriction enzymes, putting DMOc under control of a double CaM[…] promoter and providing it the nopaline synthase terminator. The plasmid pMDC43-DMOc was transferred from E. coli containing the plasmid to Agrobacterium tumefaciens (strain LBA4404) using a helper strain (E. coli […] pRK2013). Wild type Col-0 Arabidopsis thaliana was transformed by in planta transformation. The first transgenic generation (T1) was selected on MS-agar plates (1% agar, 1×MS salts, pH 5.7, 1% glucose) containing 20 μg/mL hygromycin. […]

Eragrostis tef (tef) = test: Activity vs a panel of plants: Eragrostis tef; format: in vivo; conditions: 31.25 μM to 4000 μM; imaged day 12
Description: as §1, §2, §3

[8] = test system: Triticum aestivum (wheat); test: Activity vs a panel of plants: Triticum aestivum; format: in vivo; conditions: 31.25 μM to 4000 μM; imaged day 12
Description: as §1, §2, §3

[9] = test system: Ratibida columnifera (prairie coneflower); test: Activity vs a panel of plants: Ratibida columnifera; format: in vivo; conditions: 31.25 μM to 4000 μM; imaged day 12
Description: as §1, §2, §3

Structure (SMILES)	drift burn (volatility), FIG. 6 (Arabidopsis thaliana [1])	drift behaviour, FIG. 27 (Arabidopsis thaliana [1])	drift burn (volatility), FIG. 5 (Arabidopsis thaliana [1])	activity against Arabidopsis thaliana on an equimolar basis, FIG. 7 (Arabidopsis thaliana [2])	activity against Lolium rigidum on an equimolar basis, FIG. 11 [3]	activity against Cynodon dactylon on an equimolar basis, FIGS. 8 and 9 [4]	activity against Solanum lycopersicum on an equimolar basis, FIGS. 15 and 16 [5]	activity against Raphanus raphanistrum on an equimolar basis, FIGS. 13 and 14 [6]	compatibility with the dicamba tolerance (DMOc) trait, FIG. 26 [7]	activity against Eragrostis tef on an equimolar basis, FIG. 10 (Eragrostis tef (tef))	activity against Triticum aestivum on an equimolar basis, FIG. 17 [8]	activity against Ratibida columnifera on an equimolar basis, FIG. 12 [9]
COc1c(Cl)ccc(Cl)c1C(=O)OCCN(C)C.Cl [Compound 1. HCl, 2-(dimethylamino)ethyl 3,6-dichloro-2-methoxybenzoate hydrochloride]	did not show any drift burn	does not drift	no drift burn at all was visible	comparable activity	comparable activity	comparable activity	comparable activity	comparable activity	Compatible with the DMOc Trait	comparable activity	comparable activity	comparable activity
COc1c(Cl)ccc(Cl)c1C(=O)O [dicamba, 3,6-dichloro-2-methoxybenzoic acid, reference compound]	did	drifted	burn symptoms are apparent	comparable activity	comparable activity	comparable activity	comparable activity	comparable activity	compatibility	comparable activity	comparable activity	comparable activity
